# Reference: patent publication US7605272B2, “IGF-1R inhibitor” (Kyowa Hakko Kirin Co., Ltd., priority 2005, dated 2009)
# Where a name gives a salt, the structure may show the parent alone.
# Experiments:
# NCI-H929 = assay: Cytostatic activity on human multiple myeloma cell line NCI-H929 (WST-1); type: cell-based; conditions: 72 hours; for inhibition at 10 µM / inhibition at 1 µM: Homo sapiens, NCI-H929, 72 h; for inhibition at 10 µM: 10 μmol/L, read-out: cytostatic rate (%) H929 (10 μmol/L); for inhibition at 1 µM: read-out: cytostatic rate (%) H929 (1 μmol/L)
# Summary of the method: (§1)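 Cells pre-cultured 24 h at 37 °C, 5% CO2, then exposed 72 h to compound at final 1 or 10 μmol/L (0.1% DMSO). WST-1 added for 2 h, absorbance at 450 nm (ref 690 nm). Cytostatic rate = 100 minus relative growth, with DMSO control as 100% and blank as 0%.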
# KMS-11 = assay: Cytostatic activity on human multiple myeloma cell line KMS-11 (WST-1); type: cell-based; conditions: 72 hours; for inhibition at 10 µM / inhibition at 1 µM: Homo sapiens, KMS-11, 72 h; for inhibition at 10 µM: 10 μmol/L, read-out: cytostatic rate (%) KMS-11 (10 μmol/L); for inhibition at 1 µM: read-out: cytostatic rate (%) KMS-11 (1 μmol/L)
# Summary of the method: as §1
# AsPC-1 = assay: Cytostatic activity on human pancreatic cancer cell line AsPC-1 (WST-1); type: cell-based; conditions: 10 μmol/L; for inhibition at 10 µM: Homo sapiens, ASPC1, 72 h, read-out: cytostatic rate (%) AsPC-1 (10 μmol/L)
# Experimental: (§2) The cytostatic rates of the test compound on the human pancreatic cancer cell line AsPC-1 and the human colon cancer cell line Colo205 were determined in the following manner.
# (§3) For culturing AsPC-1, RPMI 1640 medium containing 20% fetal bovine serum, 1 mmol/L sodium pyruvate, 10 mmol/L HEPES, 4.5 g/L glucose and penicillin/streptomycin (1:1). The Colo205 cell was cultured using RPMI 1640 medium containing 10% fetal bovine serum, 1 mmol/L sodium pyruvate, 10 mmol/L HEPES, 4.5 g/L glucose and penicillin/streptomycin (1:1) was used. Each 80 μL of the AsPC-1 cell having a concentration of 5×10^4 cells/mL (or the Colo205 having a concentration of 5×10^4 cells/mL) was inoculated to wells of a TC MICROWELL 96F plate (Nalge Nunc International, Catalog No. 167008) and was cultured in a 5% carbon dioxide gas incubator at 37° C. for 24 hours. Each 20 μL of a solution of the test compound in DMSO which was prepared to make the final concentration to 1 μmol/L or 10 μmol/L, was added to each well. Each 20 μL of DMSO was added to the control well and the blank well to a final concentration of 0.1%. After adding the test compound, the cell was incubated in a 5% carbon dioxide gas incubator at 37° C. for 72 hours except for the blank well. After adding 20 μL of WST-1 reagent which was diluted to 50% by RPMI medium to each well, the cells were further incubated at 37° C. for 2 hours. Then, the absorbances at 450 nm (reference wavelength: 690 nm) were determined with a microplate spectrophotometer SPECTRA max 340PC. The cytostatic rate (%) was then determined in the similar manner to the above multiple myeloma cell lines.
# Colo205 = assay: Cytostatic activity on human colon cancer cell line Colo205 (WST-1); type: cell-based; conditions: 10 μmol/L; for inhibition at 10 µM: Homo sapiens, COLO 205, 72 h, read-out: cytostatic rate (%) Colo205 (10 μmol/L)
# Experimental: as §2, §3
# IGF-1R = biological target: T1, IGF-1R (Homo sapiens, UniProt P08069); assay: IGF-1R inhibitory activity (kinase reaction, time-resolved fluoroimmunoassay); type: biochemical; conditions: IGF-1R active recombinant enzyme, test compound 10 μmol/L
# T1 construct: purchased Upstate Co. 14-465
# T1 sequence (P08069 959-1367 limits assumed): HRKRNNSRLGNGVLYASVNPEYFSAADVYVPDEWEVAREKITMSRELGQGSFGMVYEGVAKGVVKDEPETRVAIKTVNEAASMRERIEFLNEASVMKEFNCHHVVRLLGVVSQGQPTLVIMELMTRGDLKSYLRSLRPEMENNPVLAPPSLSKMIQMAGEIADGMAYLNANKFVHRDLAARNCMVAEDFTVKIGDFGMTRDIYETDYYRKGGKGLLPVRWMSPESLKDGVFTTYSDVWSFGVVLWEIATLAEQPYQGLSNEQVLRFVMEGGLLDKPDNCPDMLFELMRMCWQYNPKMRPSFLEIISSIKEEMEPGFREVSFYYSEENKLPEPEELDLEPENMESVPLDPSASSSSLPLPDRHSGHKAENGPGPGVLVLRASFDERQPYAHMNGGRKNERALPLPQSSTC
# Summary of the method: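 Compounds were tested at a single 10 μmol/L concentration. Each was incubated with recombinant IGF-1R (200 μg/L), 10 mmol/L ATP, MgCl2/MnCl2 and Na3VO4 (pH 7.5) on immobilized poly(Glu-Tyr) peptide for 30 min at 24° C. Eu-anti-phosphotyrosine time-resolved fluorescence (340/615 nm) gave relative activity against no-compound and no-enzyme wells, reported as % inhibition.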
inhibition at 10 µM (IGF-1R) [%],inhibitory activity (%) at 10 μmol/L (IGF-1R) [%],SMILES,inhibition at 10 µM (NCI-H929) [%],inhibition at 10 µM (KMS-11) [%],inhibition at 10 µM (AsPC-1) [%],inhibition at 10 µM (Colo205) [%],inhibition at 1 µM (NCI-H929; 1 μmol/L) [%],inhibition at 1 µM (KMS-11; 1 μmol/L) [%],cytostatic rate (%) H929 (1 μmol/L) (NCI-H929; 1 μmol/L) [%],cytostatic rate (%) KMS-11 (1 μmol/L) (KMS-11; 1 μmol/L) [%],cytostatic rate (%) AsPC-1 (10 μmol/L) (AsPC-1; 72 hours) [%],cytostatic rate (%) Colo205 (10 μmol/L) (Colo205; 72 hours) [%]
99.5,,"Nc1cccc2c1C(=O)N(c1cc3c(cc1/C=C/c1n[nH]c4ccccc14)OCO3)C2=O [Compound 152, (E)-4-amino-2-{6-[2-(1H-indazol-3-yl)vinyl]benzo[1,3]dioxol-5-yl}isoindole-1,3-dione]",122,116,72.1,86.7,,,,,,
99.8,,"Nc1ccc2c(c1)C(=O)N(c1cc3c(cc1/C=C/c1n[nH]c4ccccc14)OCO3)C2=O [Compound 153, (E)-5-amino-2-{6-[2-(1H-indazol-3-yl)vinyl]benzo[1,3]dioxol-5-yl}isoindole-1,3-dione]",122,129,77,114,,,,,,
102,,"Nc1cccc2c1C(=O)N(c1ccccc1/C=C/c1n[nH]c3ccccc13)C2=O [Compound 194, (E)-4-amino-2-{2-[2-(1H-indazol-3-yl)vinyl]phenyl}isoindole-1,3-dione]",119,143,75.3,97.9,,,,,,
96.6,,"CN(C(=O)c1ccc[nH]1)c1cc(C(=O)N2CCOCC2)ccc1/C=C/c1n[nH]c2ccccc12 [Compound 217, (E)-N-{2-[2-(1H-indazol-3-yl)vinyl]-5-(morpholin-4-ylcarbonyl)phenyl}-N-methylpyrrole-2-carboxamide hydrochloride]",,,91.9,122,113,128,,,,
98.7,,"Cc1ccsc1C(=O)Nc1cc(C(=O)N2CCN(S(C)(=O)=O)CC2)ccc1/C=C/c1n[nH]c2ccccc12 [Compound 222, (E)-N-{2-[2-(1H-indazol-3-yl)vinyl]-5-(4-methanesulfonylpiperazin-1-ylcarbonyl)phenyl}-3-methylthiophene-2-carboxamide hydrochloride]",,,114,123,118,108,,,,
106,,"Cc1ccsc1C(=O)Nc1cc(CN2CC[C@@H](N)C2)ccc1/C=C/c1n[nH]c2ccccc12 [Compound 233, (R)-(E)-N-{5-(3-aminopyrrolidin-1-ylmethyl)-2-[2-(1H-indazol-3-yl)vinyl]phenyl}-3-methylthiophene-2-carboxamide]",,,89.1,123,118,102,,,,
101,,"Cc1ccsc1C(=O)Nc1cc(CN2CCN(CCO)CC2)ccc1/C=C/c1n[nH]c2ccccc12 [Compound 239, (E)-N-{5-[4-(2-hydroxyethyl)piperazin-1-ylmethyl]-2-[2-(1H-indazol-3-yl)vinyl]phenyl}-3-methylthiophene-2-carboxamide]",,,102,121,115,152,,,,
101,,"COCCN(CCN(C)C)C(=O)c1ccc(/C=C/c2n[nH]c3ccccc23)c(NC(=O)c2sccc2C)c1 [Compound 241, (E)-N-{5-[N-(2-dimethylaminoethyl)-N-(2-methoxyethyl)carbamoyl]-2-[2-(1H-indazol-3-yl)vinyl]phenyl}-3-methylthiophene-2-carboxamide hydrochloride]",,,104,121,112,118,,,,
,102.1,Cc1ccsc1C(=O)Nc1cc(CN2CCNCC2)ccc1/C=C/c1n[nH]c2ccccc12 [Compound 242],,,,,,,111.1,106.8,87.1,119.7
